The source of these data is PMC3060404 (Chembiochem : a European journal of chemical biology, 2010).

Common to all, as to assay type: biochemical
One test addresses PRMT1 (Homo sapiens, UniProt Q99873). Nature of the test: PRMT1 IC50 assay. To be noted: read-out: IC50 for PRMT1; 200 nM PRMT1, 15 µM 14C-methyl-SAM, 25 µM AcH4-21, 37 °C.
A further test has as its system PRMT3. In words: PRMT3 IC50 assay. To be noted: read-out: IC50 for PRMT3; 500 nM PRMT3, 15 µM 14C-methyl-SAM, 250 µM RGG, 37 °C.
A further test has as its system CARM1/PRMT4. Nature of the test: CARM1/PRMT4 IC50 assay. To be noted: read-out: IC50 for PRMT4; 150 nM CARM1/PRMT4, 15 µM 14C-methyl-SAM, 10 µM histone H3, 30 °C.
Another test deals with PRMT6 (Homo sapiens, UniProt Q96LA8). In words: PRMT6 IC50 assay. As to conditions: read-out: IC50 for PRMT6; 500 nM PRMT6, 15 µM 14C-methyl-SAM, 30 µM histone H3, 37 °C.
Chain of PRMT6 (Q96LA8 whole entry, species assumed): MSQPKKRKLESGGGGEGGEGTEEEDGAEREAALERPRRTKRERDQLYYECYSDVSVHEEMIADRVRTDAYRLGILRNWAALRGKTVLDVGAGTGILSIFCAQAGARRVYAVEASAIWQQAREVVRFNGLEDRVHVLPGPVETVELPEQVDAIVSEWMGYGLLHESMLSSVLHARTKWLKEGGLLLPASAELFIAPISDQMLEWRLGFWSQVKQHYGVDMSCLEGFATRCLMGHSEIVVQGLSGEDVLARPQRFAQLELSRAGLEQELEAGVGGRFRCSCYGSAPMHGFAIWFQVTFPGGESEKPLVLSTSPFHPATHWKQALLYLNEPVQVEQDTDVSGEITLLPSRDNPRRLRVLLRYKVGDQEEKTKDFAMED

Chain of PRMT1 (Q99873 1-353 isoform Q99873-3): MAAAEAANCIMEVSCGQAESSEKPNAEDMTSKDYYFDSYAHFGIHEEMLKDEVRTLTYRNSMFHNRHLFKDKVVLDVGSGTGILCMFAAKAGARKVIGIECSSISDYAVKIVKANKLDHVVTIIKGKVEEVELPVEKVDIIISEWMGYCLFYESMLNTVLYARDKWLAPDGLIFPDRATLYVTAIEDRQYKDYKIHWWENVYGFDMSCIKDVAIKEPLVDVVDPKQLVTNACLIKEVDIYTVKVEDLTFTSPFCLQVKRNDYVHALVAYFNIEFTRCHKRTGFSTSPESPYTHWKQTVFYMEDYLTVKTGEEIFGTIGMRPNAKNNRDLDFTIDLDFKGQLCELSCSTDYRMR

By IC50 is commonly meant the point on the concentration scale where inhibition reaches its midpoint. As for `NC(=O)[C@H](CCCN=C(N)CCl)NC(=O)c1ccccc1` [Cl-amidine], the IC50 at PRMT1 is 225 ± 10 µM; with PRMT3, greater than 500 µM; with CARM1/PRMT4 it was greater than 500 µM; at PRMT6, greater than 500 µM.

As for `NC(=O)[C@H](CCCN=C(N)CF)NC(=O)c1ccccc1` [F-amidine], the IC50 at PRMT1, with PRMT3, with CARM1/PRMT4 and at PRMT6 was greater than 500 µM in each case.
